# Test results from ChEMBL document CHEMBL1201862, “PubChem BioAssay data set” (2004).
#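 Step 1: Grow cells in 96-well plates. Step 2: Expose to compound for 48 hours at 5 concentrations. Step 3: Interpolate endpoints linearly; if unreached, use highest concentration. GI50 is the concentration that inhibits growth by half.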 Calls of active or inactive are those of the source. No stated cut-off is given here; in the data, active = GI50 up to about 1.1 µM and inactive = higher.
# Columns and labels:
# Test in all cases: NCI anticancer screen, dose series, 48 h
# IGROV-1 = tested on: IGROV-1
# K562 = tested on: K562
# HL-60 = tested on: HL-60
# KM12 = tested on: KM12
# SF-268 = tested on: SF-268
# SK-MEL-28 = tested on: SK-MEL-28
# Malme-3M = tested on: Malme-3M
# SF-539 = tested on: SF-539
# HOP-92 = tested on: HOP-92
# UO-31 = tested on: UO-31
# CCRF-CEM = tested on: CCRF-CEM
# SR = tested on: SR
# 786-0 = tested on: 786-0
# HCT-15 = tested on: HCT-15
# UACC-62 = tested on: UACC-62
# EKVX = tested on: EKVX
# SW-620 = tested on: SW-620
# BT-549 = tested on: BT-549
# MCF7 = tested on: MCF7
Compound,GI50 (IGROV-1),GI50 (K562),GI50 (HL-60),GI50 (KM12),GI50 (SF-268),GI50 (SK-MEL-28),GI50 (Malme-3M),GI50 (SF-539),GI50 (HOP-92),GI50 (UO-31),GI50 (CCRF-CEM),GI50 (SR),GI50 (786-0),GI50 (HCT-15) [µM],GI50 (UACC-62),GI50 (EKVX),GI50 (SW-620),GI50 (BT-549),GI50 (MCF7)
Cc1cc(C)n(-c2ccnc3cc(Cl)ccc23)n1,> 100 µM (inactive),> 100 µM (inactive),> 100 µM (inactive),> 100 µM (inactive),> 100 µM (inactive),> 100 µM (inactive),> 100 µM (inactive),> 100 µM (inactive),> 100 µM (inactive),91.6 µM (inactive),> 100 µM (inactive),> 100 µM (inactive),> 100 µM (inactive),> 100,> 100 µM (inactive),> 100 µM (inactive),> 100 µM (inactive),,
Cc1cn2c(/C=N/NC(=N)N)c(-c3cccc([N+](=O)[O-])c3)nc2s1,5.56 µM (inactive),0.215 µM (active),1.92 µM (inactive),0.647 µM (active),1.08 µM (active),1.29 µM (inactive),1.96 µM (inactive),1.98 µM (inactive),1.64 µM (inactive),5.62 µM (inactive),0.532 µM (active),1.77 µM (inactive),1.47 µM (inactive),4.41,1.69 µM (inactive),2.38 µM (inactive),0.661 µM (active),1.75 µM (inactive),0.625 µM (active)
Clc1ccc(/C=c2\nc(-c3ccccc3)n3c2nc2ccccc23)cc1,> 100 µM (inactive),> 100 µM (inactive),> 100 µM (inactive),> 100 µM (inactive),34.4 µM (inactive),0.0465 µM (active),> 100 µM (inactive),22.4 µM (inactive),> 100 µM (inactive),> 100 µM (inactive),> 100 µM (inactive),> 100 µM (inactive),56.8 µM (inactive),> 100,> 100 µM (inactive),19.7 µM (inactive),> 100 µM (inactive),63.2 µM (inactive),> 100 µM (inactive)
O=[As](O)(O)c1cc(/N=N/c2ccc(-c3ccc(/N=N/c4cc([As](=O)(O)O)c(O)cc4O)cc3)cc2)c(O)cc1O,> 100 µM (inactive),> 55.5 µM (inactive),> 48.8 µM (inactive),> 100 µM (inactive),> 100 µM (inactive),> 100 µM (inactive),> 69.2 µM (inactive),> 74.1 µM (inactive),> 100 µM (inactive),> 100 µM (inactive),> 45.8 µM (inactive),> 100 µM (inactive),> 100 µM (inactive),97.1,> 100 µM (inactive),> 100 µM (inactive),> 100 µM (inactive),,
O=C1CN(c2ccc(Cl)cc2)C(=O)CN1CCN1CC(=O)N(c2ccc(Cl)cc2)CC1=O,> 100 µM (inactive),,> 100 µM (inactive),> 100 µM (inactive),> 100 µM (inactive),> 100 µM (inactive),> 100 µM (inactive),,> 100 µM (inactive),> 100 µM (inactive),> 100 µM (inactive),> 100 µM (inactive),> 100 µM (inactive),> 100,> 100 µM (inactive),> 100 µM (inactive),> 100 µM (inactive),> 100 µM (inactive),> 100 µM (inactive)
Cc1cc2nc3[nH]nc(N)c3nc2cc1C,> 100 µM (inactive),> 100 µM (inactive),> 100 µM (inactive),> 100 µM (inactive),> 100 µM (inactive),> 100 µM (inactive),> 100 µM (inactive),,> 100 µM (inactive),> 100 µM (inactive),> 100 µM (inactive),> 100 µM (inactive),> 100 µM (inactive),> 100,> 100 µM (inactive),31.4 µM (inactive),> 100 µM (inactive),> 100 µM (inactive),> 100 µM (inactive)
CCN(CC)CCn1nc(N)c2nc3ccccc3nc21,> 100 µM (inactive),> 100 µM (inactive),> 100 µM (inactive),> 100 µM (inactive),> 100 µM (inactive),> 100 µM (inactive),> 100 µM (inactive),> 100 µM (inactive),> 100 µM (inactive),> 100 µM (inactive),> 100 µM (inactive),59.8 µM (inactive),> 100 µM (inactive),> 100,> 100 µM (inactive),> 100 µM (inactive),93.5 µM (inactive),> 100 µM (inactive),> 100 µM (inactive)
CCC12C=CCN3CCC4(c5cc(C6(C(=O)OC)CCCCCc7c6[nH]c6ccccc76)c(OC)cc5N(C)C4C(O)(C(=O)OC)C1OC(C)=O)C32 (stereo not drawn),2.16 µM (inactive),2.82 µM (inactive),2.29 µM (inactive),2.55 µM (inactive),2.95 µM (inactive),2.23 µM (inactive),1.87 µM (inactive),2.25 µM (inactive),2.26 µM (inactive),2 µM (inactive),1.97 µM (inactive),2.54 µM (inactive),2.29 µM (inactive),2.1,1.64 µM (inactive),3.57 µM (inactive),3.3 µM (inactive),,
